Experiment [1] deals with T1, CDK2/Cyclin A (Homo sapiens, UniProt P24941).
T1 construct: purchased Invitrogen PV6290
Description: Enzymatic assay for CDK2 (LANCE Ultra kinase assay, FRET based). The class given is biochemical. The settings on record: ATP at Km. In outline:
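Inhibition was measured at ATP Km with 68 nM ULight-MBP peptide and CDK2/Cyclin A ([…]) or CDK5/p25 ([…]), using 8-dose 4-fold compound dilutions from DMSO. Kinase reaction ran 60 min at 23° C, then Eu anti-phospho-MBP plus EDTA were added for another 60 min before the fluorescence read.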

Experiment [2] relates to H460. Description: Cellular H460 viability assay (CellTiter-Glo, 72 hours). It counts as cell-based. The settings on record: Homo sapiens, NCI-H460; H460 cells.
Experiment [3] relates to A2780. Briefly: A2780 viability assay (CellTiter-Glo, 72 hours). The settings on record: Homo sapiens; A2780 cells. It counts as cell-based. In a few lines:
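RPMI-1640/10% FBS; plate cells (MV4-11 1×10^4, OVCAR-3 5×10^3, A2780 1×10^3 per well); 24 h later add compound 0.0015–10 uM; 72 h, 37° C; CellTiter-Glo luminescence, duplicate wells.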

Data on 1 compound can be found in patent publication US12606561B2, “Substituted pyrazolo[1,5-a][1,3,5]triazines as CDK inhibitors” (QURIENT CO., LTD., priority 2018, dated 2026).

As for `CC(C)c1cnn2c(NCc3ccccc3-c3nccc4cc(NC(=O)/C=C/CN(C)C)ccc34)nc(N3CCC(N)CC3)nc12` [Compound 11], the figures for the IC50 in experiment [1], in experiment [2] and in experiment [3] were more than 1000 nM, less than 1000 nM and less than 1000 nM, respectively.
